Measured values reported in ChEMBL document CHEMBL1130783, “Synthesis and antiviral activity of novel isodideoxy nucleosides with exocyclic methylene” (Bioorg Med Chem Lett, 1998).
Converted amounts (≈) assume the structure as drawn.

Tests used:
[1] = tested on: Human betaherpesvirus 5; test: Compound was evaluated for the antiviral activity against HCMV; format: functional, organism-based
[2] = tested on: Human alphaherpesvirus 1; test: Compound was evaluated for the antiviral activity against HSV-1; format: functional, organism-based
[3] = tested on: Human immunodeficiency virus 1; test: Compound was evaluated for the antiviral activity against HIV-1; format: functional, organism-based
[4] = tested on: Human alphaherpesvirus 2; test: Compound was evaluated for the antiviral activity against HSV-2; format: functional, organism-based
[5] = Compound was evaluated for its cytotoxicity.; format: functional

SMILES	EC50 [1]	EC50 [2]	EC50 [3]	EC50 [4]	IC50 [5]
C=C1[C@H](CO)OC[C@@H]1n1cnc2c(N)ncnc21	33.3 µg/mL (≈ 135 µM)	> 100 µg/mL	> 100 µg/mL	> 100 µg/mL	> 100 µg/mL
C=C1[C@H](CO)OC[C@@H]1n1ccc(=O)[nH]c1=O	10.6 µg/mL (≈ 47.3 µM)	100 µg/mL (≈ 446 µM)	100 µg/mL (≈ 446 µM)	100 µg/mL (≈ 446 µM)	100 µg/mL (≈ 446 µM)
C=C1[C@H](CO)OC[C@@H]1n1cnc2c(O)nc(N)nc21	> 100 µg/mL	> 100 µg/mL	> 100 µg/mL	> 100 µg/mL	> 100 µg/mL
C=C1[C@H](CO)OC[C@@H]1n1cnc2c(O)ncnc21	> 100 µg/mL	35 µg/mL (≈ 141 µM)	> 100 µg/mL	> 100 µg/mL	> 100 µg/mL
C=C1[C@H](CO)OC[C@@H]1n1ccc(N)nc1=O	> 100 µg/mL	> 100 µg/mL	> 100 µg/mL	> 100 µg/mL	> 100 µg/mL
Nc1nc2c(ncn2COCCO)c(=O)[nH]1 [ACYCLOVIR]	–	1.05 µg/mL (≈ 4.68 µM)	–	5.12 µg/mL (≈ 22.7 µM)	250 µg/mL (≈ 1110 µM)
Nc1nc2c(ncn2COC(CO)CO)c(=O)[nH]1 [GANCICLOVIR]	0.74 µg/mL (≈ 2.9 µM)	–	–	–	> 10 µg/mL
Cc1cn([C@H]2C[C@H](N=[N+]=[N-])[C@@H](CO)O2)c(=O)[nH]c1=O [ZIDOVUDINE]	–	–	0.00132 µg/mL (≈ 0.00494 µM)	–	1 µg/mL (≈ 3.74 µM)
